Among the test systems are SK-OV-3; K562; CAKI-1; M14; SNB-19; DLD-1; A498; T47D; SN12C; MCF7; NCI-H522; Malme-3M; HOP-62; MOLT-4; RPMI-8226; RXF 393; SW-620; ACHN; PC-3; SK-MEL-2.
Assay in all cases: NCI anticancer screen, dose series, 48 h

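Exposure lasted 48 hours, with cells grown in 96-well plates and compounds tested at five concentrations. Abbreviation: GI50, concentration required for 50% inhibition of growth.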 The source made the active and inactive calls. No stated cut-off is given here; in the data, active = GI50 up to about 1.1 µM and inactive = higher.

The text below walks through data of ChEMBL document CHEMBL1201862, “PubChem BioAssay data set” (2004).

Take `N#C/C(=C\c1c[nH]c2ccccc12)C(=O)c1ccc(O)c(O)c1`: the GI50 was 43.5 µM (inactive) in the assay on SK-OV-3; 23.2 µM (inactive) in the assay with K562; 41.5 µM (inactive) in the assay with CAKI-1; 38.5 µM (inactive) in the assay with M14; 32.4 µM (inactive) with SNB-19; 47.9 µM (inactive) with DLD-1. In addition, the GI50 with A498 is 41.6 µM (inactive); in the assay with T47D, 31 µM (inactive); with SN12C, 23.1 µM (inactive); in the assay on MCF7, 12 µM (inactive); in the assay with NCI-H522, 13.5 µM (inactive); in the assay with Malme-3M, > 47.9 µM (inactive). In addition, the GI50 is 19.2 µM (inactive) in the assay with HOP-62; 12.4 µM (inactive) in the assay on MOLT-4; 15.4 µM (inactive) with RPMI-8226; 38.9 µM (inactive) in the assay with RXF 393; 32.7 µM (inactive) in the assay on SW-620; 27.8 µM (inactive) with ACHN. The GI50 in the assay on PC-3 is 33.8 µM (inactive); with SK-MEL-2 it was > 36.7 µM (inactive).

Take `Cc1cc(NC(=O)NC(=O)c2ccccc2N(C)C)ccc1Oc1ncc(Br)cn1`: the GI50 was 0.437 µM (active) in the assay on SK-OV-3; 0.119 µM (active) in the assay on K562; 0.957 µM (active) with M14; 0.532 µM (active) in the assay on SNB-19; 0.373 µM (active) with DLD-1; 0.29 µM (active) in the assay with A498. For the same molecule, the GI50 in the assay with T47D was 1.61 µM (inactive); in the assay with SN12C it was 1.74 µM (inactive); in the assay with MCF7, 0.249 µM (active); in the assay on NCI-H522 it was 0.21 µM (active); in the assay with Malme-3M, 0.425 µM (active); with HOP-62, 0.659 µM (active). Besides, the GI50 is 1.08 µM (active) in the assay on MOLT-4; 0.451 µM (active) in the assay on RPMI-8226; 0.656 µM (active) in the assay on RXF 393; 0.301 µM (active) in the assay with SW-620; 3.05 µM (inactive) in the assay with ACHN; 0.333 µM (active) in the assay with PC-3. Also, the GI50 with SK-MEL-2 was 0.733 µM (active).
